Assay [1] addresses T1, fatty acyl CoA:cholesterol acyl transferase (ACAT) (Rattus norvegicus, UniProt O70536).
T1 construct: The supernatant, containing the microsomal fraction, served as the source of the cholesterol-esterifying enzyme; from tissue; host or cells: rat adrenals, homogenate, 1000 x g supernatant containing the microsomal fraction
T1 sequence (O70536 1-545): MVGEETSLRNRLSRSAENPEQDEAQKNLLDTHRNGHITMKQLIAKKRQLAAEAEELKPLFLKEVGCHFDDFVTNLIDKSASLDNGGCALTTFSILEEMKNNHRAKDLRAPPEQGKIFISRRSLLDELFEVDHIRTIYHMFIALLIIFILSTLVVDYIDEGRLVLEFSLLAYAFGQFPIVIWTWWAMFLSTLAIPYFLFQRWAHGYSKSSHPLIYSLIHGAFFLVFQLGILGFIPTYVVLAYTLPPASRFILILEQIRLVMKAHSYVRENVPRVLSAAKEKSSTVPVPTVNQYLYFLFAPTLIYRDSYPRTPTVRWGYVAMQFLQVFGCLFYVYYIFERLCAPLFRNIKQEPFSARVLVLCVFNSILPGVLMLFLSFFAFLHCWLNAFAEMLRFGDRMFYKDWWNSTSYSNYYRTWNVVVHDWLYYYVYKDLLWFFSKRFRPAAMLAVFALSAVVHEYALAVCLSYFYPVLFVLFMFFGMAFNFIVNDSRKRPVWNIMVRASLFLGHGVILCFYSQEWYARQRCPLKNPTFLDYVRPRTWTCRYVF
Nature of the assay: In vitro inhibition of fatty acyl CoA:cholesterol acyl transferase (ACAT), rat adrenal supernatant. The assay is classed as biochemical. Particulars: pH 7.4, 37° C., oleoyl CoA (14C). Here is the method:
The compounds were tested for their ability to inhibit ACAT according to the following procedure:
Rat adrenals were homogenized in 0.2 M monobasic potassium phosphate buffer, pH 7.4, and centrifuged at 1000 times gravity for 15 minutes at 5° C. The supernatant, containing the microsomal fraction, served as the source of the cholesterol-esterifying enzyme, fatty acyl CoA:cholesterol acyl transferase (ACAT). A mixture comprising 50 parts of adrenal supernatant, 10 parts of albumin (BSA) (50 mg./ml.), 3 parts of test compound (final concentration 5.2 μg./ml.) and 500 parts of buffer was preincubated at 37° C. for 10 minutes. After treatment with 20 parts of oleoyl CoA (^14 C--0.4 μCi) the mixture was incubated at 37° C. for 10 minutes. A control mixture, omitting the test compound, was prepared and treated in the same manner. The lipids from the incubation mixture were extracted into an organic solvent and separated by thin-layer chromatography. The cholesteryl ester fraction was counted in a scintillation counter.

A further assay relates to Cholesterol absorption. Particulars: po, 0.03 % of diet, 336 h.
[2] abbreviates: final concentration 5.2 μg./ml.
Setting [3] is: pH 7.4, final concentration 5.2 μg./ml.

This note sets out measurements from US4387106A, “Method of treating atherosclerosis with di(aralkyl)ureas and di(aralkyl)thioureas” (American Cyanamid Company, priority 1982, dated 1983).

SMILES strings stand for the structures.

Procedure for Cholesterol absorption: Compounds were tested in vitro for their ability to inhibit the enzyme fatty acyl CoA:cholesterol acyl transferase (ACAT) and in vivo for serum hypolipidemic activity as measured by their ability to inhibit lipid absorption in rats.
Inhibition of Cholesterol absorption was determined by feeding male Sprague-Dawley rats, weighing 150-170 g., A 1% cholesterol:0.5% cholic acid diet for 2 weeks. The diet also contained compounds being tested at a dose of 0.03% of the diet. Control rats were fed the same diet without any compound. At the end of the test, the rats were sacrificed by decapitation. Blood is collected, centrifuged at 1.5 kg times gravity for 10 minutes at 4° C., and the serum is then analyzed for cholesterol and triglycerides enzymatically by the method of Trinder, P., Analyst, 77, 321 (1952) on a Centrifichem 400 Analyzer. Livers are removed, a 0.4 g sample is taken from the center of the large lobe, and the sample is subjected to saponification using 25% saturated potassium hydroxide in ethanol. The resulting neutral sterols are extracted with petroleum ether and extract analyzed for cholesterol. The effectiveness of the compound in inhibiting cholesterol absorption is measured by the lowering of either serum cholesterol or liver cholesterol relative the values for control rats.

Take `O=C(Nc1ccc(Br)cc1Br)N(Cc1ccccc1)Cc1ccccc1` [1,1-Dibenzyl-3-(2,4-dibromophenyl)urea]: the inhibition (in general, the percentage by which the read-out fell short of the control) at 5.2 µg/mL in assay [1] (setting [2]) is 81.9%. Still for that read-out and setting: next, `Cc1ccc(C)c(NC(=O)N(Cc2ccccc2)Cc2ccccc2)c1` [1,1-Dibenzyl-3-(2,5-dimethylphenyl)urea]: 89.1%. As to `O=C(Nc1ccc(Cl)cc1Cl)N(Cc1ccccc1)Cc1ccccc1` [1,1-Dibenzyl-3-(2,4-dichlorophenyl)urea], the “Result (inhibition of cholesterol absorption: lowering of serum or liver cholesterol relative to control)” value in the assay on Cholesterol absorption is reported as “Active”. Moreover, testing at 5.2 µg/mL in assay [1] (setting [2]) gave an inhibition of 83.3%.

`O=C(Nc1ccc(Cl)cc1)N(Cc1ccccc1)Cc1ccccc1` [1,1-Dibenzyl-3-(4-chlorophenyl)urea] displayed an inhibition at 5.2 µg/mL in assay [1] (setting [2]) of 77.5%. Still for that read-out and setting: next, `O=C(Nc1cccc(Cl)c1)N(Cc1ccccc1)Cc1ccccc1` [1,1-Dibenzyl-3-(3-chlorophenyl)urea]: 94.2%; `FC(F)(F)c1cccc(NC(=S)N(Cc2ccccc2)Cc2ccccc2)c1` [1,1-Dibenzyl-3-(3-trifluoromethylphenyl)thiourea]: 88.6%; `O=C(Nc1ccc(Br)cc1)N(Cc1ccccc1)Cc1ccccc1` [1,1-Dibenzyl-3-(4-bromophenyl)urea]: 79.9%. Same read-out and setting: next, `COc1ccc(NC(=O)N(Cc2ccccc2)Cc2ccccc2)cc1` [1,1-Dibenzyl-3-(4-methoxyphenyl)urea]: 71.6%. `Cc1ccc(NC(=S)N(Cc2ccccc2)Cc2ccccc2)cc1Cl` [1,1-Dibenzyl-3-(3-chloro-4-methylphenyl)thiourea]: in the assay on Cholesterol absorption, the “Result (inhibition of cholesterol absorption: lowering of serum or liver cholesterol relative to control)” value is listed as “Active”. The inhibition at 5.2 µg/mL in assay [1] (setting [2]) is 94.1%.

`O=C(Nc1cc(Cl)cc(Cl)c1)N(Cc1ccccc1)Cc1ccccc1` [1,1-Dibenzyl-3-(3,5-dichlorophenyl)urea] registered an inhibition at 5.2 µg/mL in assay [1] (setting [2]) of 86.1%.

As to `CCOC(=O)c1ccc(NC(=S)N(Cc2ccccc2)Cc2ccccc2)cc1` [1,1-Dibenzyl-3-(4-carboethoxyphenyl)thiourea], in assay [1] (setting [2]), 5.2 µg/mL produced 76.6% inhibition. Regarding `O=C(Nc1ccc(Cl)c(Cl)c1)N(Cc1ccccc1)Cc1ccccc1` [1,1-Dibenzyl-3-(3,4-dichlorophenyl)urea], in assay [1] (setting [2]), the inhibition at 5.2 µg/mL was found to be 94.5%. `CCOc1ccc(NC(=O)N(Cc2ccccc2)Cc2ccccc2)cc1` [1,1-Dibenzyl-3-(4-ethoxyphenyl)urea] registered an inhibition at 5.2 µg/mL in assay [1] (setting [2]) of 95.8%. As to `CCc1cccc(C)c1NC(=O)N(Cc1ccccc1)Cc1ccccc1` [1,1-Dibenzyl-3-(6-ethyl-2-methylphenyl)urea], at 5.2 µg/mL the inhibition in assay [1] (setting [2]) was 73.6%. For the compound `Cc1cccc(NC(=S)N(Cc2ccccc2)Cc2ccccc2)c1` [1,1-Dibenzyl-3-(3-methylphenyl)thiourea], the “Result (inhibition of cholesterol absorption: lowering of serum or liver cholesterol relative to control)” value in the assay on Cholesterol absorption is recorded as “Active”. The compound also registered an inhibition at 5.2 µg/mL in assay [1] (setting [2]) of 71.2%. For `CCOC(=O)c1ccc(NC(=O)N(Cc2ccccc2)Cc2ccccc2)cc1` [1,1-Dibenzyl-3-(4-carboethoxyphenyl)urea], the “Result (inhibition of cholesterol absorption: lowering of serum or liver cholesterol relative to control)” value with Cholesterol absorption was “Active”. Besides, at 5.2 µg/mL the inhibition in assay [1] (setting [2]) was 94.9%.

`CC(=O)c1cccc(NC(=O)N(Cc2ccccc2)Cc2ccccc2)c1` [1,1-Dibenzyl-3-(3-acetylphenyl)urea] showed an inhibition at 5.2 µg/mL in assay [1] (setting [2]) of 80.7%. On to `O=C(Nc1ccccc1)N(Cc1ccccc1)Cc1ccccc1` [1,1-Dibenzyl-3-phenylurea, 1,1-Dibenzyl-3-phenyl urea], for which 5.2 µg/mL produced 90.4% inhibition in assay [1] (setting [2]). For `O=C(Nc1cccc2ccccc12)N(Cc1ccccc1)Cc1ccccc1` [1,1-Dibenzyl-3-(2,3-dibenzophenyl)urea], in assay [1] (setting [2]), at 5.2 µg/mL the inhibition was 90%.

In assay [1] (setting [2]), `O=C(Nc1cc(F)ccc1F)N(Cc1ccccc1)Cc1ccccc1` [1,1-Dibenzyl-3-(2,5-difluorophenyl)urea] had an inhibition at 5.2 µg/mL of 72%. In turn, `Cc1cccc(NC(=O)N(Cc2ccccc2)Cc2ccccc2)c1` [1,1-Dibenzyl-3-(3-methylphenyl)urea] showed an inhibition at 5.2 µg/mL in assay [1] (setting [2]) of 88.9%. On the same count and under the same terms, next, `O=C(Nc1cccc(Cl)c1Cl)N(Cc1ccccc1)Cc1ccccc1` [1,1-Dibenzyl-3-(2,3-dichlorophenyl)urea]: 79.7%. The same measure, in the same setting: next, `O=C(Nc1cc(Cl)ccc1Cl)N(Cc1ccccc1)Cc1ccccc1` [1,1-Dibenzyl-3-(2,5-dichlorophenyl)urea]: 82.4%; `CSc1ccc(NC(=O)N(Cc2ccccc2)Cc2ccccc2)cc1` [1,1-Dibenzyl-3-(4-methylthiophenyl)urea]: 67.1%. In the case of `Cc1cc(C)cc(NC(=O)N(Cc2ccccc2)Cc2ccccc2)c1` [1,1-Dibenzyl-3-(3,5-dimethylphenyl)urea], 5.2 µg/mL produced 90.2% inhibition in assay [1] (setting [2]). As for `Cc1ccccc1NC(=O)N(Cc1ccccc1)Cc1ccccc1` [1,1-Dibenzyl-3-(2-methylphenyl)urea], 5.2 µg/mL produced 77% inhibition in assay [1] (setting [2]).

In turn, `O=C(Nc1ccc(Cl)c(C(F)(F)F)c1)N(Cc1ccccc1)Cc1ccccc1` [1,1-Dibenzyl-3-(4-chloro-3-trifluoromethylphenyl)urea] gave an inhibition at 5.2 µg/mL in assay [1] (setting [2]) of 92%. On to `COc1ccccc1NC(=O)N(Cc1ccccc1)Cc1ccccc1` [1,1-Dibenzyl-3-(2-methoxyphenyl)urea], for which, in assay [1] (setting [2]), 5.2 µg/mL produced 91% inhibition. Regarding `O=C(Nc1ccc2ccccc2c1)N(Cc1ccccc1)Cc1ccccc1` [1,1-Dibenzyl-3-(3,4-dibenzophenyl)urea], in assay [1] (setting [3]), testing at 5.2 µg/mL gave an inhibition of 97.3%. For the compound `COc1cccc(NC(=O)N(Cc2ccccc2)Cc2ccccc2)c1` [1,1-Dibenzyl-3-(3-methoxyphenyl)urea], the inhibition at 5.2 µg/mL in assay [1] (setting [2]) stood at 87%. The compound `O=C(Nc1ccccc1Cl)N(Cc1ccccc1)Cc1ccccc1` [1,1-Dibenzyl-3-(2-chlorophenyl)urea] displayed an inhibition at 5.2 µg/mL in assay [1] (setting [2]) of 87.8%. In turn, `COc1ccc(OC)c(NC(=O)N(Cc2ccccc2)Cc2ccccc2)c1` [1,1-Dibenzyl-3-(2,5-dimethoxyphenyl)urea] registered an inhibition at 5.2 µg/mL in assay [1] (setting [2]) of 87.9%.

As for `O=C(Nc1ccc([N+](=O)[O-])cc1)N(Cc1ccccc1)Cc1ccccc1` [1,1-Dibenzyl-3-(4-nitrophenyl)urea], in assay [1] (setting [2]), the inhibition at 5.2 µg/mL worked out at 52.2%. As to `O=C(Nc1c(Cl)cccc1Cl)N(Cc1ccccc1)Cc1ccccc1` [1,1-Dibenzyl-3-(2,6-dichlorophenyl)urea], in assay [1] (setting [2]), 5.2 µg/mL produced 88.6% inhibition. Turning to `CCc1cccc(CC)c1NC(=O)N(Cc1ccccc1)Cc1ccccc1` [1,1-Dibenzyl-3-(2,6-diethylphenyl)urea], in assay [1] (setting [2]), the inhibition at 5.2 µg/mL was found to be 72%. In the case of `CCCCOc1ccc(NC(=O)N(Cc2ccccc2)Cc2ccccc2)cc1` [1,1-Dibenzyl-3-(4-n-butoxyphenyl)urea], the inhibition at 5.2 µg/mL in assay [1] (setting [2]) is 90.2%.

Compound `Cc1c(Cl)cccc1NC(=O)N(Cc1ccccc1)Cc1ccccc1` [1,1-Dibenzyl-3-(3-chloro-2-methylphenyl)urea] displayed an inhibition at 5.2 µg/mL in assay [1] (setting [2]) of 83.8%. `O=C(Nc1ccc(I)cc1)N(Cc1ccccc1)Cc1ccccc1` [1,1-Dibenzyl-3-(4-iodophenyl)urea] returned an inhibition at 5.2 µg/mL in assay [1] (setting [2]) of 85.2%.

In the case of `Cc1cccc(C)c1NC(=O)N(Cc1ccccc1)Cc1ccccc1` [1,1-Dibenzyl-3-(2,6-dimethylphenyl)urea], the inhibition at 5.2 µg/mL in assay [1] (setting [2]) is 56.1%. For `O=C(Nc1cccc([N+](=O)[O-])c1)N(Cc1ccccc1)Cc1ccccc1` [1,1-Dibenzyl-3-(3-nitrophenyl)urea], in assay [1] (setting [2]), the inhibition at 5.2 µg/mL came to 81.3%. As to `Cc1ccc(NC(=O)N(Cc2ccccc2)Cc2ccccc2)cc1` [1,1-Dibenzyl-3-(4-methylphenyl)urea], the figures for the inhibition at 5.2 µg/mL in assay [1] (setting [2]) and in assay [1] (setting [3]) were 89.8% and 86.5%, respectively. With `O=C(O)c1ccc(NC(=O)N(Cc2ccccc2)Cc2ccccc2)cc1` [1,1-Dibenzyl-3-(4-carboxyphenyl)urea], the inhibition at 5.2 µg/mL in assay [1] (setting [2]) turned out to be 14.1%. Regarding `CC(C)c1cccc(C(C)C)c1NC(=O)N(Cc1ccccc1)Cc1ccccc1` [1,1-Dibenzyl-3-(2,6-isopropylphenyl)urea, 1,1-Dibenzyl-3-(2,6-diisopropylphenyl)urea], at 5.2 µg/mL the inhibition in assay [1] (setting [2]) was 59.1%. The compound `O=C(Nc1ccccc1Br)N(Cc1ccccc1)Cc1ccccc1` [1,1-Dibenzyl-3-(2-bromophenyl)urea] displayed an inhibition at 5.2 µg/mL in assay [1] (setting [2]) of 93.9%.

For `Cc1cccc(Cl)c1NC(=O)N(Cc1ccccc1)Cc1ccccc1` [1,1-Dibenzyl-3-(6-chloro-2-methylphenyl)urea], the inhibition at 5.2 µg/mL in assay [1] (setting [2]) came out at 83.9%. `O=C(Nc1cccc(C(F)(F)F)c1)N(Cc1ccccc1)Cc1ccccc1` [1,1-Dibenzyl-3-(3-trifluoromethylphenyl)urea]: the inhibition at 5.2 µg/mL in assay [1] (setting [2]) turned out to be 94.2%.
